Source: patent publication US10934274B2, “Quinoline derivatives as TAM RTK inhibitors” (Qurient Co., Ltd., priority 2015, dated 2021)

Experiments:
Mer = molecular target: T1, Mer (Homo sapiens, UniProt Q12866); assay: LanthaScreen Eu kinase binding assay, Mer; conditions: Tracer 236
T1 construct: purchased Life Technologies
T1 sequence (Q12866 21-999): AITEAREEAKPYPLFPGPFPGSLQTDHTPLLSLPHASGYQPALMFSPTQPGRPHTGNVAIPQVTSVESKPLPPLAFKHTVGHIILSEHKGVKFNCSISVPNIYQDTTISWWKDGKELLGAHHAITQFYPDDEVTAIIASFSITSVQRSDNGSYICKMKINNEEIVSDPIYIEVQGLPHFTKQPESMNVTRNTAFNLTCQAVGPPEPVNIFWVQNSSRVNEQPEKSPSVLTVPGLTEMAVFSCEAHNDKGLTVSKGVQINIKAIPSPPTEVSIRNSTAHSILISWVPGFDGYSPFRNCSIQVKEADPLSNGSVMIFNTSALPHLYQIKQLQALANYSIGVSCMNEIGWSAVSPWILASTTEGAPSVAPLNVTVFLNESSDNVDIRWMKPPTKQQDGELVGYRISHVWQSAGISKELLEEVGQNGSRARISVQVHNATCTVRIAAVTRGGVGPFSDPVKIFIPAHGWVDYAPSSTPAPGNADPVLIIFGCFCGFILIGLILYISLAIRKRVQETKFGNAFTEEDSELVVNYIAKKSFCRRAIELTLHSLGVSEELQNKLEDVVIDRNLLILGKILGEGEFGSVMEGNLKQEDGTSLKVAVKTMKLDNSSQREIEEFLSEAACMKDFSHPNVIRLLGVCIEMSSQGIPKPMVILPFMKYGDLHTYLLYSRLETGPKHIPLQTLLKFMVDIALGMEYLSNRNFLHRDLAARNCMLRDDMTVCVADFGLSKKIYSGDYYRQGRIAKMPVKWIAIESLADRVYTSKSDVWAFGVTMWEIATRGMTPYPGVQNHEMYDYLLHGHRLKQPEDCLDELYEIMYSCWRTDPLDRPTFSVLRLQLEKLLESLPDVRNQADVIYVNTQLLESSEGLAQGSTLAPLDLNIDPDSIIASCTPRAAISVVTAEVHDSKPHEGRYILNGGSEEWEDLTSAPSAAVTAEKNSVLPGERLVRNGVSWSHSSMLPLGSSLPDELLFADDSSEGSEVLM

TYRO3 = molecular target: T2, TYRO3 (Homo sapiens, UniProt Q06418); assay: LanthaScreen Eu kinase binding assay, TYRO3; conditions: Tracer 236
T2 construct: purchased Life Technologies
T2 sequence (Q06418 41-890): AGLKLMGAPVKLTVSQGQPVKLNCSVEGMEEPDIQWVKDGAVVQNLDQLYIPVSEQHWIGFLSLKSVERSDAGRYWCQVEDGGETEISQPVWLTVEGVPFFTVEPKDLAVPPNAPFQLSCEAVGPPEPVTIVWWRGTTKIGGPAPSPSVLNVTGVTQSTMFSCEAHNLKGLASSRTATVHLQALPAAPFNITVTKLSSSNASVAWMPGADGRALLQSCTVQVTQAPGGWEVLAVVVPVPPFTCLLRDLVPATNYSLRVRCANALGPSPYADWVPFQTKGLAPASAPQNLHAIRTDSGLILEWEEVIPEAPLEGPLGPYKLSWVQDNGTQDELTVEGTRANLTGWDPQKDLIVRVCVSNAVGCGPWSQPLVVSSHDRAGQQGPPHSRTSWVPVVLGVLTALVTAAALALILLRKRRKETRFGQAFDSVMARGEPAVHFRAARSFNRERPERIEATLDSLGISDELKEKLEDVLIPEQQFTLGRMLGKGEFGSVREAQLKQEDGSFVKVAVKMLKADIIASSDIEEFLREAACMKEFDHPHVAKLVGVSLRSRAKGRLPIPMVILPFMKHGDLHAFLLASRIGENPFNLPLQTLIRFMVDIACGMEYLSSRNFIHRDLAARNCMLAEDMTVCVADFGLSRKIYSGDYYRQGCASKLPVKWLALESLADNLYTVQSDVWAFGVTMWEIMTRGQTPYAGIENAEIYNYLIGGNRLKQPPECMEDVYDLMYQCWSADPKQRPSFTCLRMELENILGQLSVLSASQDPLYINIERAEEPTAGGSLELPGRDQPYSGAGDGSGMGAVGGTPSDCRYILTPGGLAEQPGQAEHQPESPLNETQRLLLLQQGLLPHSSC

Met = molecular target: T3, Met (Homo sapiens, UniProt P08581); assay: LanthaScreen Eu kinase binding assay, Met; conditions: Tracer 236, read-out: cMet kinase binding activity (Kd)
T3 construct: purchased Life Technologies
T3 sequence (P08581 25-1390): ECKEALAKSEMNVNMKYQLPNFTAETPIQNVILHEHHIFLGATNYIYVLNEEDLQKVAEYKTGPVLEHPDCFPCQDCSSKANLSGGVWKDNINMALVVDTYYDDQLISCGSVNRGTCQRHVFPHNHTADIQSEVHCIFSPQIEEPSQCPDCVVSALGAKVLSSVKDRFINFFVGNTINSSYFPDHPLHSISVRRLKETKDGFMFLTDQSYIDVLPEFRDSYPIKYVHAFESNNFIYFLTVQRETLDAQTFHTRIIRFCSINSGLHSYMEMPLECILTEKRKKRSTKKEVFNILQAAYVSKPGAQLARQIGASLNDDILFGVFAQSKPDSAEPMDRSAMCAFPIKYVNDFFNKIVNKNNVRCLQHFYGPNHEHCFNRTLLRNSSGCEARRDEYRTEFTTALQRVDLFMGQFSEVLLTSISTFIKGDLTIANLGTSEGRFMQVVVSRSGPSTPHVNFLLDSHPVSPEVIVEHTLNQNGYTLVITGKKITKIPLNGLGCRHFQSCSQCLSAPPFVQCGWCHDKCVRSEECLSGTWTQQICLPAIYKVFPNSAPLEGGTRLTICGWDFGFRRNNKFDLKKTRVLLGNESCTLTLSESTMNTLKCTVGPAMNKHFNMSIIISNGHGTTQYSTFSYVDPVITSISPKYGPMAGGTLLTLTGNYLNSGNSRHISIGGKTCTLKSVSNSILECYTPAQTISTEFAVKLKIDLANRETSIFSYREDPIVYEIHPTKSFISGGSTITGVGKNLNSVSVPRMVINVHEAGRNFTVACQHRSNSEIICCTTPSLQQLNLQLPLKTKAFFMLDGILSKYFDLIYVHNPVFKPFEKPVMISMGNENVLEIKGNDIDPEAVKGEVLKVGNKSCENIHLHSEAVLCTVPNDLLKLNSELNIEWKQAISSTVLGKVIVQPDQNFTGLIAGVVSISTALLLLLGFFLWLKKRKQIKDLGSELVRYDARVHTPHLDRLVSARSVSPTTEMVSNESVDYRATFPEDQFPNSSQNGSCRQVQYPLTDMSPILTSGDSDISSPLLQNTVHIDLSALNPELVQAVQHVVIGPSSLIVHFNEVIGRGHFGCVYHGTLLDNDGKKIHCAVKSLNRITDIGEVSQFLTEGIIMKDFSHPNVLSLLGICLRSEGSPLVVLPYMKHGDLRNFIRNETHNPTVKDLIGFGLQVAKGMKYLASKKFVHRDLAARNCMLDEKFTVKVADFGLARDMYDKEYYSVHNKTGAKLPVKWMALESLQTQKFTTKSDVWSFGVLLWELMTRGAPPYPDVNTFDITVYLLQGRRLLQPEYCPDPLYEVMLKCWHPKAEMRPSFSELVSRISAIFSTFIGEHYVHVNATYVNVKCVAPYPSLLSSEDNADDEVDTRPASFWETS

[1] = tested on: Axl phosphorylation in transiently transfected HEK293T cells; assay: Cellular Axl phosphorylation assay; type: cell-based; conditions: Homo sapiens, HEK-293T; HEK293T cells transfected with Axl, 1 hour compound treatment, Phospho-Axl vs Total-Axl
Text: Cell AXL Inhibition Assay Principle
The assay is based on the measurement of the relative amounts of Total-Axl and Phosphorylated-Axl in whole cell lysates of transiently transfected HEK293T cells. This assay is based on application of the Mesoscale western blot and subsequent electro-chemiluminescence detection. Overexpression of Axl-RTK (Receptor tyrosine kinase) by transfection leads to an increase in Axl-trans-autophosphorylation events. Upon compound treatment, the correlation of the measured values of Phosphorylated-Axl and Total Axl indicate the potential of the tested compound to inhibit Axl-phosphorylation at the given compound concentration.
Cell AXL Inhibition Assay Protocol
HEK293T cells (2.5×10^4/well) were plated in a 96 well plate and cells were transfected with pcDNA_DEST_40 Axl or pcDNA_DEST_40 by Superfact reagent (Qiagen. Co. Ltd.). After overnight, the transfection reagent of each well was removed from cells and replaced by fresh prewarmed medium. On the following day, cells were treated with the respective test compound which was diluted by the same method, as in the Axl binding assay using DMSO, for 1 hour
After incubation with the test compounds, cells in the well of the plate were lysed using Tris lysis buffer. The lysate was transferred to two plates (total-Axl and phosphor-Axl) Mesoscale high bind plates and incubated for two hours at room temperature. Afterwards the lysates were removed from the plates and the plates were blocked using Blocking buffer. Subsequently Total-Axl antibody (H-124, Santa Cruz) was transferred to one Mesoscale high bind plate, and Phospho-Axl antibody (AF2228, R&D) to the other plate. After 1 h incubation, Sulpho-Tag antibody (goat anti-rabbit, Mesoscale) was added and again incubated for 1 hour. For the measurement, 2×MSD read buffer was added to each well and the plates were analyzed with a Mesoscale Sector Imager 2400. IC50 (half the maximal inhibitory concentration) was determined relative to between the vehicle (DMSO) control group and minimum control group as transfection of the control vector (pcDNA_DEST_40).
The results after this assay are shown in table 3 for selected compounds.

Axl = molecular target: T4, Axl (Homo sapiens, UniProt P30530); assay: LanthaScreen Eu kinase binding assay, Axl; conditions: Tracer 236
T4 construct: purchased Life Technologies
T4 sequence (P30530 26-894): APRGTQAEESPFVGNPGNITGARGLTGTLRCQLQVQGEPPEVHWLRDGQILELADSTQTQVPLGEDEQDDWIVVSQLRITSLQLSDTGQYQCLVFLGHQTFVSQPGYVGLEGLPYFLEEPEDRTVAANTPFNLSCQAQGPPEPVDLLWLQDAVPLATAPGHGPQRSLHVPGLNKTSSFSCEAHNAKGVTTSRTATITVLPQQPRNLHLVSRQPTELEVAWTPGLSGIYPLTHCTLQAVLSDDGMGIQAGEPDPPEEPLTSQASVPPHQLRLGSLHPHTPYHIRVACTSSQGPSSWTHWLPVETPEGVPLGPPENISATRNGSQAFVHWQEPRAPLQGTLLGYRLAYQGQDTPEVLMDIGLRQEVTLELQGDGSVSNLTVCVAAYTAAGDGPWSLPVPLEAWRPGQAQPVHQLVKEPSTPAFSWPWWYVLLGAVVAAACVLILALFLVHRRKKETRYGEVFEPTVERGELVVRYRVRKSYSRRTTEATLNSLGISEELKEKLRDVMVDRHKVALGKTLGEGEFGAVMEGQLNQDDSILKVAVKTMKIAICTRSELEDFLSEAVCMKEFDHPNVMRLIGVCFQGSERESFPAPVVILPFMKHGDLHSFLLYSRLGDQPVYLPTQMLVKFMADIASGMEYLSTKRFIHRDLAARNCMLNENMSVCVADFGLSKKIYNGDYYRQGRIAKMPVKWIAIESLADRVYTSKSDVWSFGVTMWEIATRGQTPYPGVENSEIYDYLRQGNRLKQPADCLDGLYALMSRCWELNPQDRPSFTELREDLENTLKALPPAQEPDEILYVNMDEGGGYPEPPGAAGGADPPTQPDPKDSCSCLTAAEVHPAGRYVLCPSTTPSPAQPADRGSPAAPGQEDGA

SMILES | Kd (Mer) [nM] | Kd (TYRO3) [nM] | Kd (Met) [nM] | IC50 [1] [nM] | Kd (Axl) [nM]
C=C(C)c1ccncc1-n1cc(OCC)c(C(=O)Nc2ccc(Oc3ccnc4cc(OC)c(OC)cc34)cn2)n1 [Compound 202] | < 100 | < 100 | < 100 | < 100 | 
CCOc1cn(-c2cncc(C(F)(F)F)n2)nc1C(=O)Nc1ccc(Oc2ccnc3cc(OC)c(OC)cc23)cn1 [Compound 164] | < 100 | ≥ 1000 | 100 to 1000 |  | 100 to 1000
CCOc1cn(-c2cnc(N)nc2)nc1C(=O)Nc1ccc(Oc2ccnc3cc(OC)c(OC)cc23)cc1F [Compound 153] | < 100 | < 100 | < 100 |  | < 100
CCOc1cn(-c2cnccn2)nc1C(=O)Nc1cc(C)c(Oc2ccnc3cc(OC)c(OC)cc23)cn1 [Compound 163] | < 100 | ≥ 1000 | < 100 |  | < 100
CCOc1cnn(CC2CCN(C)CC2)c1C(=O)Nc1ccc(Oc2ccnc3cc(OC)c(OC)cc23)cc1F [Compound 220] | ≥ 1000 | ≥ 1000 | ≥ 1000 |  | ≥ 1000
CCOc1c(C(=O)Nc2ccc(Oc3ccnc4cc(OC)c(OC)cc34)cn2)nn(-c2cccnc2)c1C [Compound 156] | < 100 | < 100 | < 100 |  | < 100
